From patent publication US4002752A, “Piperazinylimino rifamycins” (Gruppo Lepetit S.p.A., priority 1975, dated 1977) come the findings set out here.

By LD50 is commonly meant the dose expected to kill half of the subjects tested. Higher therefore signals lower toxicity. By ED50 is commonly meant the dose at which the effect has come halfway, by size or by number of responders. A higher ED50 goes with weaker potency. Broadly, the MIC is the smallest concentration in the dilution series that meets the test's criterion for growth inhibition.

Values after ≈ are worked out from the molar mass of the structure shown.

One series is described as follows: toxicity in mice (LD50). The following applies: mouse, in vivo.
The next series deals with Staphylococcus aureus. Nature of the series: experimental Staphylococcus aureus infections in mice. The series is classed as in vivo. As to conditions: po; Staphylococcus aureus infection in mice.
A further series in a line: in vivo. The following applies: mouse.
Series [1] deals with Mycobacterium tuberculosis H37 Rv. The series is described as follows: minimal inhibitory concentration in vitro against Mycobacterium tuberculosis H37 Rv. The following applies: H37RV. The series is classed as cell-based. As to the method: For instance, the value of the minimal inhibitory concentration in vitro of the "cyclopentyl derivative" against Mycobacterium tuberculosis H37 Rv is 0.05 μg/ml, while that of rifampicin is 0.5 μg/ml.

For series [2] the test system is unchanged. The series is described as follows: survival time of mice infected with Mycobacterium tuberculosis H37 Rv. The class given is in vivo. The following applies: once a week administration per os versus daily administration of rifampicin at the same dose level. The text has this:
The unexpected biological characteristics of the novel rifamycins have been evidenced by considering the survival time after a daily administration of rifampicin in comparison with a once a week administration of the same dose level per os of 3-(4-cyclopentyl-1-piperazinyl)iminomethylrifamycin SV (hereinafter referred to as "cyclopentyl derivative") to mice infected with Mycobacterium tuberculosis H37 Rv.

In the case of `CO[C@H]1/C=C/O[C@@]2(C)Oc3c(C)c(O)c4c(O)c(c(/C=N/N5CCN(C)CC5)c(O)c4c3C2=O)NC(=O)/C(C)=C\C=C\[C@H](C)[C@H](O)[C@@H](C)[C@@H](O)[C@@H](C)[C@H](OC(C)=O)[C@@H]1C` [rifampicin], the LD50 in “toxicity in mice (LD50)” (ip) is 416 mg/kg; in the series “toxicity in mice (LD50)” (po), 907 mg/kg.
Compound `COC1C=COC2(C)Oc3c(C)c(O)c4c(O)c(c(C=NN5CCN(C6CCC6)CC5)c(O)c4c3C2=O)NC(=O)C(C)=CC=CC(C)C(O)C(C)C(O)C(C)C(OC(C)=O)C1C` (stereo not drawn) [cyclobutyl derivative, 3-(4-cyclobutyl-1-piperazinyl)iminomethylrifamycin SV] showed an ED50 with Staphylococcus aureus of 0.16 mg/kg. In addition, the LD50 in the series “in vivo” (ip) is over 650 mg/kg; in “in vivo” (po), over 2000 mg/kg.
In series [1], `COC1C=COC2(C)Oc3c(C)c(O)c4c(O)c(c(C=NN5CCN(C6CCCC6)CC5)c(O)c4c3C2=O)NC(=O)C(C)=CC=CC(C)C(O)C(C)C(O)C(C)C(OC(C)=O)C1C` (stereo not drawn) [cyclopentyl derivative, 3-(4-cyclopentyl-1-piperazinyl)iminomethylrifamycin SV] displayed an MIC of 0.05 µg/mL (≈ 0.057 µM). Moreover, the survival time entry in series [2] is listed as “about the same survival time”. In addition, the LD50 in the series “in vivo” (ip) was over 750 mg/kg; in “in vivo” (po), over 2000 mg/kg.
